# System: CTGF
# Test: CTGF mRNA levels in MCF7-R cells, qPCR
# Type: cell-based, human
# Conditions: SER 20 μM
# Protocol: Total RNA was isolated from cells, quantified (NanoDrop spectrophotometer, Life Technologies, Carlsbad, CA, USA) and reverse transcribed according to the manufacturer’s instructions. Semiquantitative PCR and qPCR assays were performed according to manufacturer’s instructions for Bio-Rad T100 thermal cycler and CFX Connect Real Time system (Biorad, Hercules, CA, USA), respectively. Relative gene expression quantification was measured by 2^−ΔΔCt method normalizing for the reference sample using Rps23 (Ribosomal Protein S23) as housekeeping gene.
# Fig. 9 Effect of SER79 and SER68 on Tamoxifen-resistant (MCF7-R) cells. a Estrogen starved MCF7-R were treated with SER79 (20 μM, 5 μM) or SER68 (20 μM) in presence of E2 (100 nM). b Estrogen-starved MCF7-R were treated with Tamoxifen (5 μM) in presence of E2 and SER79 (20 μM) or SER68 (20 μM). a,b As positive control, the cells were treated with E2 alone, in absence or in presence of SER (dotted line). After 72 h, cell viability was assessed by sulforhodamine B assay (see Methods). The results were reported as percentage of viable cells compared to positive control, considered as maximum viability (100%). c mRNA levels of CTGF were determined by qPCR (see Methods and Table 1) in MCF7-R cells upon treatment with SER68 (20 μM). […]
smiles,measurement,value
O=C1C2C3C=CC(C3)C2C(=O)N1OCCN1CCN(c2ccc(Cl)c(Cl)c2)CC1 (stereo not shown) [SER68],effect on CTGF mRNA content of MCF7-R cells,did not further reduce

# — publication PMC8845285, “Serotoninergic receptor ligands improve Tamoxifen effectiveness on breast cancer cells” (BMC Cancer, 2022)
